Reference: PubChem BioAssay AID2060493 (Molecular Pharmacology Branch, DTP, NCI, 2025)
“And” between values parts separate entries of the source, which are not always exact repeats. Equal entries are not always repeated. Blank lines part the entries; values can stand above or below the compound they belong to.

System: 616215-338-R-J1-PDC tumor spheroids, viability
Test: Anticancer human tumor 616215-338-R-J1-PDC patient-derived colon adenocarcinoma cell line growth inhibition [GQUAD]
Conditions: spheroids with HUVEC and MSC; for viability, T/C: stronger effect = lower value
Description: DNA G-quadruplex Stabilizer Agents in Combinations in Complex Spheroids
A high-throughput screen of multi-cell type tumor spheroids was designed to identify active combinations of DNA G-quadruplex stabilizer agents and targeted small molecules. Complex spheroids include a stromal component modeled by human endothelial cells (HUVEC) and fibroblasts modeled by human mesenchymal stem cells (MSCs). The concentration ranges selected for each drug and investigational agent were based upon clinically achievable concentrations if the clinical Cmax of the agent was known.
Compounds. The drugs and investigational agents: pidnarulex (CX-5461; NSC782164), APTO-253 (NSC789042), BRACO-19 (NSC847499), peposertib (NSC802822), ceralasertib (NSC780249), elimusertib (NSC800525), camonsertib (NSC841442), AZD-1390 (NSC803789), olaparib (NSC753686), talazoparib (NSC767125), ART-558 (NSC835418), sotorasib (NSC818433), MRTX-1133 (NSC836407), SN-38 (NSC673596), topotecan (NSC609699), etoposide (NSC141540), doxorubicin (NSC123127), gemcitabine (NSC613327), 5-fluorouracil (NSC19893), paclitaxel (NSC125973), vemurafenib (NSC761431), panobinostat (NSC761190), R-306465 (JNJ-16241199; NSC773264), adavosertib (NSC754352), TP-3654 (NSC805149), carboplatin (NSC241240), KSQ-4279 (NSC840948), and staurosporine (NSC755774) were obtained from the National Cancer Institute (NCI) Developmental Therapeutics Program Chemical Repository (34). The FDA-approved anticancer drug set is available from the NCI Developmental Therapeutics Program. […] The stock solutions were prepared in dimethyl sulfoxide (DMSO, Sigma-Aldrich, St. Louis, MO, cat. D2650) at 800-fold the tested concentration and stored at -70 degrees C prior to their use. All drugs and investigational agents were tested over a range starting from a high concentration at or near the clinical Cmax and decreasing in half-log increments. If the clinical Cmax for an agent had not been determined, the highest concentration tested was 10 microM.
2.3 Cell Culture. All cells were maintained in an incubator at 37 degrees C and 5% CO2 with 95% humidity. The PDC lines were cultured according to standard operating procedures established by the NCI PDMR. All PDCs were thawed and cultured in Matrigel-coated flasks prepared with a working solution of 1X Ham's F-12 nutrient mix, without supplementation (Invitrogen, cat. 11765054), 100 U/mL penicillin-streptomycin (Invitrogen, cat. 15140122), and 2.5% Matrigel (Corning Inc., cat. 354248) for the first three passages. The 857933-349-R-J2-PDC line was cultured in 6C/Colon 1B media, which includes advanced DMEM/F-12 (Thermo Fisher Scientific, cat. 12634028), 10 mM HEPES (Thermo Fisher Scientific, cat. 15630080), 1X GlutaMAX supplement (Thermo Fisher Scientific, cat. 35050061), 0.1 mg/mL primocin (InvivoGen, cat. ant-pm-2), 10% defined fetal bovine serum, heat inactivated (HyClone Laboratories Inc., cat. SH30070.03HI), 50% L-WRN conditioned media (ATCC, cat. CRL-3276), 1.25 mM N-Acetyl-L-cysteine (Sigma-Aldrich, cat. A9165), 10 mM nicotinamide (Sigma-Aldrich, cat. N0636), 1X B-27 supplement (Thermo Fisher Scientific, cat. 17504044), 1X N-2 supplement (Thermo Fisher Scientific, cat. 17502048), 10 microM Y-27632 dihydrochloride (Tocris Bioscience, cat. 1254), and 50 ng/mL human EGF recombinant protein (Thermo Fisher Scientific, cat. PHG0311). The 485176-168-R4-J1-PDC line was cultured in Panc media, which includes all 6C/Colon 1B media components plus 100 ng/mL human FGF-10 (Thermo Fisher Scientific, cat. 100-26), 500 nM SB-431542 (Selleckchem, cat. S1067), and gastrin (Tocris, cat. 3006).
[…]
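Note: spheroids exposed to agents for 7 days before readout.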
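Throughout, for viability, T/C: percent viability relative to DMSO vehicle control wells taken as 100%.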

- IC50 (curve of first compound, second compound 0.0316 µM): 274 nM
- IC50 (curve of first compound, second compound 0.1 µM): 142 nM
- IC50 (curve of first compound, second compound 0.316 µM): < 0.999 nM
- IC50 (curve of first compound, second compound 1 µM): < 0.999 nM
- IC50 (curve of first compound, second compound 3.16 µM): < 0.999 nM
- IC50 (curve of first compound, second compound 10 µM): < 0.999 nM
Compound: CC[C@@]1(O)C(=O)OCc2c1cc1n(c2=O)Cc2cc3c(CN(C)C)c(O)ccc3nc2-1 + Cc1cnc(CNC(=O)c2c(=O)c3ccc(N4CCCN(C)CC4)nc3n3c2sc2ccccc23)cn1
- viability, T/C (second compound 0.0316 µM, first compound 0.000999 µM): 116%
- viability, T/C (second compound 0.0316 µM, first compound 0.00316 µM): 102%
- viability, T/C (second compound 0.0316 µM, first compound 0.00999 µM): 92.5%
- viability, T/C (second compound 0.0316 µM, first compound 0.0316 µM): 94.9%
- viability, T/C (second compound 0.0316 µM, first compound 0.0999 µM): 87%
- viability, T/C (second compound 0.0316 µM, first compound 0.316 µM): 43.7%
- viability, T/C (second compound 0.1 µM, first compound 0.000999 µM): 81.5%
- viability, T/C (second compound 0.1 µM, first compound 0.00316 µM): 68.1%
- viability, T/C (second compound 0.1 µM, first compound 0.00999 µM): 64.2%
- viability, T/C (second compound 0.1 µM, first compound 0.0316 µM): 74.8%
- viability, T/C (second compound 0.1 µM, first compound 0.0999 µM): 54.1%
- viability, T/C (second compound 0.1 µM, first compound 0.316 µM): 35.4%
- viability, T/C (second compound 0.316 µM, first compound 0.000999 µM): 38.5%
- viability, T/C (second compound 0.316 µM, first compound 0.00316 µM): 45.3%
- viability, T/C (second compound 0.316 µM, first compound 0.00999 µM): 39.2%
- viability, T/C (second compound 0.316 µM, first compound 0.0316 µM): 40.5%
- viability, T/C (second compound 0.316 µM, first compound 0.0999 µM): 53.4%
- viability, T/C (second compound 0.316 µM, first compound 0.316 µM): 40.2%
- viability, T/C (second compound 1 µM, first compound 0.000999 µM): 36.9%
- viability, T/C (second compound 1 µM, first compound 0.00316 µM): 38.4%
- viability, T/C (second compound 1 µM, first compound 0.00999 µM): 32.4%
- viability, T/C (second compound 1 µM, first compound 0.0316 µM): 27.7%
- viability, T/C (second compound 1 µM, first compound 0.0999 µM): 24.9%
- viability, T/C (second compound 1 µM, first compound 0.316 µM): 25.3%
- viability, T/C (second compound 3.16 µM, first compound 0.000999 µM): 37.1%
- viability, T/C (second compound 3.16 µM, first compound 0.00316 µM): 36.5%
- viability, T/C (second compound 3.16 µM, first compound 0.00999 µM): 31.6%
- viability, T/C (second compound 3.16 µM, first compound 0.0316 µM): 34.2%
- viability, T/C (second compound 3.16 µM, first compound 0.0999 µM): 29.3%
- viability, T/C (second compound 3.16 µM, first compound 0.316 µM): 18.5%
- viability, T/C (second compound 10 µM, first compound 0.000999 µM): 31.9%
- viability, T/C (second compound 10 µM, first compound 0.00316 µM): 25%
- viability, T/C (second compound 10 µM, first compound 0.00999 µM): 42.2%
- viability, T/C (second compound 10 µM, first compound 0.0316 µM): 24.2%
- viability, T/C (second compound 10 µM, first compound 0.0999 µM): 25.3%
- viability, T/C (second compound 10 µM, first compound 0.316 µM): 16.1%

- IC50 (curve of compound): < 31.6 nM
Compound: CC(=O)O[C@H]1C(=O)[C@@]2(C)[C@H]([C@H](OC(=O)c3ccccc3)[C@]3(O)C[C@H](OC(=O)[C@H](O)[C@@H](NC(=O)c4ccccc4)c4ccccc4)C(C)=C1C3(C)C)[C@]1(OC(C)=O)CO[C@@H]1C[C@@H]2O
- viability, T/C (compound 0.0316 µM): 18.6% and 23.3% and 49.7%
- viability, T/C (compound 0.1 µM): 15.1% and 16.7% and 22.2%
- viability, T/C (compound 0.316 µM): 14.9% and 20% and 21.1%
- viability, T/C (compound 1 µM): 18% and 14.6% and 17.4%
- viability, T/C (compound 3.16 µM): 13.8% and 14.9% and 15.3%
- viability, T/C (compound 10 µM): 13.3% and 15.2% and 14.8%

- IC50 (curve of compound): 367 nM and 381 nM and 601 nM
Compound: C=CCn1c(=O)c2cnc(Nc3ccc(N4CCN(C)CC4)cc3)nc2n1-c1cccc(C(C)(C)O)n1
- viability, T/C (compound 0.0316 µM): 106% and 108% and 101%
- viability, T/C (compound 0.1 µM): 94.6% and 98.4% and 92.7%
- viability, T/C (compound 0.316 µM): 53% and 53.7% and 76.8%
- viability, T/C (compound 1 µM): 24.1% and 24.6% and 28.5%
- viability, T/C (compound 3.16 µM): 13.3% and 13.7% and 23.5%
- viability, T/C (compound 10 µM): 12.5% and 12% and 23.2%

- IC50 (curve of compound): > 316 nM
Compound: Cn1ncnc1[C@H]1c2n[nH]c(=O)c3cc(F)cc(c23)N[C@@H]1c1ccc(F)cc1
- viability, T/C (compound 0.000999 µM): 101% and 92.4% and 96.4%
- viability, T/C (compound 0.00316 µM): 90.2% and 96.7% and 93.7%
- viability, T/C (compound 0.00999 µM): 104% and 101% and 99.2%
- viability, T/C (compound 0.0316 µM): 88.4% and 99.1% and 102%
- viability, T/C (compound 0.0999 µM): 106% and 100% (2×)
- viability, T/C (compound 0.316 µM): 99% and 97.3% and 99.4%
